Test results: PubChem BioAssay AID292 (DTP/NCI, 2004)
Values joined by “and” are separate entries in the source; they are usually repeats but may differ in a detail not shown here. Equal entries are not always repeated. Inconclusive results and toxic doses are left out. Rule for the calls: active = survival T/C of 150% or more; inactive = T/C below 125% in these data.

Tested on: B6C3F1 mice, ip Sarcoma M5076, median survival T/C
Assay: NCI In Vivo Anticancer Drug Screen. Data for tumor model Sarcoma M5076 (intraperitoneal) in B6C3F1 mice
Settings: endpoint: median survival time, schedule: Q04DX004 (ip), higher = longer survival
Method in brief: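 Mice carrying the transplanted tumour received compound treatment. Survival was recorded, and each value is the treated-group measurement divided by that of the vehicle-dosed control group.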

[1] = dose: 37.5 mg/kg/injection, vehicle: saline with Tween-80
[2] = dose: 75.0 mg/kg/injection, vehicle: saline with Tween-80
[3] = dose: 25.0 mg/kg/injection, vehicle: water
[4] = dose: 50.0 mg/kg/injection, vehicle: water
[5] = dose: 6.25 mg/kg/injection, vehicle: Klucel (hydroxypropylcellulose) (HPC)
[6] = dose: 12.5 mg/kg/injection, vehicle: Klucel (hydroxypropylcellulose) (HPC)
[7] = dose: 25.0 mg/kg/injection, vehicle: Klucel (hydroxypropylcellulose) (HPC)
[8] = dose: 50.0 mg/kg/injection, vehicle: Klucel (hydroxypropylcellulose) (HPC)
[9] = dose: 100.0 mg/kg/injection, vehicle: Klucel (hydroxypropylcellulose) (HPC)

Measured: T/C

CC[C@@H](C)[C@@H]1NC(=O)C(NC(=O)C(CC(C)C)N(C)C(=O)C2CCCN2C(=O)C(C)O)C(C)OC(=O)C(Cc2ccc(OC)cc2)N(C)C(=O)C2CCCN2C(=O)C(CC(C)C)NC(=O)C(C)C(=O)C(C(C)C)OC(=O)C[C@H]1O (some centres not stated)
active: dose: 0.36 mg/kg/injection, vehicle: distilled water + alcohol 171 % of control | dose: 0.6 mg/kg/injection, vehicle: distilled water + alcohol 209 % of control
inactive: dose: 0.13 mg/kg/injection, vehicle: distilled water + alcohol 120 % of control | dose: 45.0 micrograms/kg/injection, vehicle: distilled water + alcohol 117 % of control | dose: 90.0 micrograms/kg/injection, vehicle: distilled water + alcohol 115 % of control

COc1c2c(c(O)c3c4c(c(C)cc13)C1OC3(C(OC)OC5CC(C)(O)C(OC6CC(C)(O)C(O)C(C)O6)C(C)O5)OC1C(OC)(O4)C31CO1)C(=O)C(O)CC2OC1CC(C)(O)C(OC(C)=O)C(C)O1 (configuration not stated)
inactive: dose: 0.03 mg/kg/injection, vehicle: saline 120 % of control | dose: 15.0 micrograms/kg/injection, vehicle: saline 105 % of control | dose: 30.0 micrograms/kg/injection, vehicle: saline 115 % of control | dose: 60.0 micrograms/kg/injection, vehicle: saline 111 % of control and 118 % of control | dose: 120.0 micrograms/kg/injection, vehicle: saline 114 % of control | dose: 240.0 micrograms/kg/injection, vehicle: saline 115 % of control

O=S(=O)(O)C1=CC(=N\Cl)/C=CC/1=N/Cl
inactive: [1] 104 % of control | [2] 104 % of control | dose: 150.0 mg/kg/injection, vehicle: saline with Tween-80 106 % of control | dose: 300.0 mg/kg/injection, vehicle: saline with Tween-80 108 % of control

O=C(NC(Cc1ccc(I)cc1)C(=O)O)c1ccc(Br)cc1 (configuration not stated)
inactive: dose: 25.0 mg/kg/injection, vehicle: sodium bicarbonate 102 % of control | dose: 50.0 mg/kg/injection, vehicle: sodium bicarbonate 105 % of control | dose: 100.0 mg/kg/injection, vehicle: sodium bicarbonate 97 % of control | dose: 200.0 mg/kg/injection, vehicle: sodium bicarbonate 104 % of control | dose: 400.0 mg/kg/injection, vehicle: sodium bicarbonate 90 % of control

O=NNc1ncccn1
inactive: [3] 101 % of control | [4] 100 % of control | dose: 100.0 mg/kg/injection, vehicle: water 97 % of control | dose: 200.0 mg/kg/injection, vehicle: water 100 % of control | dose: 400.0 mg/kg/injection, vehicle: water 110 % of control

O=C([O][Bi]([c]1ccccc1)[c]1ccccc1)c1ccccc1
inactive: [5] 96 % of control | [6] 111 % of control | [7] 101 % of control | [8] 95 % of control | [9] 91 % of control

C=Cc1cc(OC)c2c(c1)c(=O)oc1c2cc(OC)c2c(O)ccc(C3OC(C)C(O)C(C)(O)C3O)c21 (configuration not stated)
inactive: dose: 10.0 mg/kg/injection, vehicle: DMSO 114 % of control | dose: 20.0 mg/kg/injection, vehicle: DMSO 110 % of control | dose: 40.0 mg/kg/injection, vehicle: DMSO 88 % of control | dose: 80.0 mg/kg/injection, vehicle: DMSO 118 % of control | dose: 160.0 mg/kg/injection, vehicle: DMSO 100 % of control

O=C1C(=O)c2cccnc2-c2ncccc21
inactive: dose: 0.38 mg/kg/injection, vehicle: Klucel (hydroxypropylcellulose) (HPC) 101 % of control | dose: 0.75 mg/kg/injection, vehicle: Klucel (hydroxypropylcellulose) (HPC) 109 % of control | dose: 1.5 mg/kg/injection, vehicle: Klucel (hydroxypropylcellulose) (HPC) 104 % of control | dose: 3.0 mg/kg/injection, vehicle: Klucel (hydroxypropylcellulose) (HPC) 105 % of control | dose: 6.0 mg/kg/injection, vehicle: Klucel (hydroxypropylcellulose) (HPC) 110 % of control

O=C1CCCCCC2=NC12 (configuration not stated)
inactive: [5] 98 % of control | [6] 100 % of control and 105 % of control | [7] 105 % of control and 112 % of control | [8] 100 % of control and 113 % of control | [9] 103 % of control and 113 % of control

CCC(CC)C(=O)NCC(=O)NO
inactive: dose: 25.0 mg/kg/injection, vehicle: saline with Tween-80 93 % of control | dose: 50.0 mg/kg/injection, vehicle: saline with Tween-80 93 % of control | dose: 100.0 mg/kg/injection, vehicle: saline with Tween-80 93 % of control | dose: 200.0 mg/kg/injection, vehicle: saline with Tween-80 97 % of control | dose: 400.0 mg/kg/injection, vehicle: saline with Tween-80 92 % of control

CC1(O)C=CC(=O)C=C1
inactive: dose: 12.5 mg/kg/injection, vehicle: water 104 % of control | [3] 102 % of control and 113 % of control | [4] 109 % of control and 114 % of control

[CH3][Sn]([CH3])([Cl])[c]1cc[c]([Sn]([CH3])([CH3])[Cl])cc1
inactive: dose: 0.25 mg/kg/injection, vehicle: saline 108 % of control | dose: 0.5 mg/kg/injection, vehicle: saline 105 % of control | dose: 1.0 mg/kg/injection, vehicle: saline 87 % of control | dose: 2.0 mg/kg/injection, vehicle: saline 91 % of control

C=CCCC(=O)CCCC(=O)O[C@@H]1[C@@H]2[C@H](CC1(C)C)[C@H](O)[C@@]13O[C@@H]1[C@H](O)[C@@]1(CO1)[C@@]23C
inactive: dose: 50.0 micrograms/kg/injection, vehicle: Klucel (hydroxypropylcellulose) (HPC) 92 % of control | dose: 100.0 micrograms/kg/injection, vehicle: Klucel (hydroxypropylcellulose) (HPC) 96 % of control | dose: 200.0 micrograms/kg/injection, vehicle: Klucel (hydroxypropylcellulose) (HPC) 96 % of control | dose: 400.0 micrograms/kg/injection, vehicle: Klucel (hydroxypropylcellulose) (HPC) 96 % of control | dose: 800.0 micrograms/kg/injection, vehicle: Klucel (hydroxypropylcellulose) (HPC) 93 % of control

COc1ccc(-n2c(SCC(=O)NC(=O)Nc3ccccc3)nc3c(Br)cc(Br)cc3c2=O)cc1
inactive: dose: 37.5 mg/kg/injection, vehicle: Klucel (hydroxypropylcellulose) (HPC) 91 % of control | dose: 75.0 mg/kg/injection, vehicle: Klucel (hydroxypropylcellulose) (HPC) 93 % of control | dose: 150.0 mg/kg/injection, vehicle: Klucel (hydroxypropylcellulose) (HPC) 89 % of control | dose: 600.0 mg/kg/injection, vehicle: Klucel (hydroxypropylcellulose) (HPC) 90 % of control

CC1(C)Nc2cc3c(cc2-n2cccc21)oc1ccccc13
inactive: dose: 150.0 mg/kg/injection, vehicle: DMSO 101 % of control | dose: 300.0 mg/kg/injection, vehicle: DMSO 100 % of control | dose: 600.0 mg/kg/injection, vehicle: DMSO 101 % of control | dose: 1200.0 mg/kg/injection, vehicle: DMSO 97 % of control

CN1CCN(c2c(C(=O)Nc3ccc([N+](=O)[O-])cc3)cc([N+](=O)[O-])cc2[N+](=O)[O-])CC1
inactive: [1] 96 % of control | [2] 91 % of control
